Experimental data published in patent US6177447A (Universiteit van Amsterdam, priority 1996, dated 2001).
Several values for one entry are separate records, joined by “and”; a condition that tells them apart may be missing. Identical values can stand only once.

Experiments:
lysosomal a-glucosidase [1] = target: T1, lysosomal a-glucosidase (Homo sapiens, UniProt P10253); assay: purified lysosomal a-glucosidase activity towards 4MU-a-glucoside; type: biochemical; conditions: 4MU-a-glucoside, pH 4.0; read-out: apparent Ki A-GLUCOSIDASE
glucocerebrosidase [2] = target: T2, glucocerebrosidase (Homo sapiens, UniProt P04062); assay: conduritol B-epoxide inhibitable glucocerebrosidase activity in membrane fraction from human spleen; type: biochemical
T2 sequence (P04062 40-536): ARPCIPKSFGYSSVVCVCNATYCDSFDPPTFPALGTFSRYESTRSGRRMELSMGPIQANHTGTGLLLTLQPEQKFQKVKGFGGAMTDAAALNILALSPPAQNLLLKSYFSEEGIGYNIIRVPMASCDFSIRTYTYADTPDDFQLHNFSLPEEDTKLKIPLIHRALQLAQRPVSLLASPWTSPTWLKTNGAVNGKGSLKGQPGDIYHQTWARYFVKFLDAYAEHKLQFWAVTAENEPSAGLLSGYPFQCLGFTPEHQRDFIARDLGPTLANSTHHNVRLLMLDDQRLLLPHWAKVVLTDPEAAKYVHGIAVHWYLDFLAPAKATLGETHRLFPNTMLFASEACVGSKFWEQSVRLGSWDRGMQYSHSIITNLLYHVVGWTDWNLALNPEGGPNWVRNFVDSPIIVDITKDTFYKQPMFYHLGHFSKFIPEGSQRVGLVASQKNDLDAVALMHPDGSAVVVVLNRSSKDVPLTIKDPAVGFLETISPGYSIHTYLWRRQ

lysosomal a-glucosidase [3] = target: T1, lysosomal a-glucosidase; assay: lysosomal a-glucosidase in cultured melanoma cells; type: cell-based; design: endogenous in cells; conditions: at IC50 concentration for glucosylceramidase
[4] = target: T3, glucocerebrosidase (Ceredase) (Homo sapiens, UniProt P04062); assay: activity of soluble human placental glucocerebrosidase (Ceredase) towards 4MU-b-glucoside; type: biochemical
T3 construct: purchased Genzyme Corp. Boston,USA; host or cells: human placenta
T3 sequence (P04062 40-536): T2 sequence (P04062 40-536)

glucosylceramidase [5] = target: T4, glucosylceramidase (Homo sapiens, UniProt Q9HCG7); assay: glucosylceramidase activity in intact melanoma cells (4MU-b-glucoside, conduritol B-epoxide insensitive); type: cell-based; design: endogenous in cells; conditions: IC50 GLUCOSYLCERAMIDASE
T4 sequence (Q9HCG7 1-927): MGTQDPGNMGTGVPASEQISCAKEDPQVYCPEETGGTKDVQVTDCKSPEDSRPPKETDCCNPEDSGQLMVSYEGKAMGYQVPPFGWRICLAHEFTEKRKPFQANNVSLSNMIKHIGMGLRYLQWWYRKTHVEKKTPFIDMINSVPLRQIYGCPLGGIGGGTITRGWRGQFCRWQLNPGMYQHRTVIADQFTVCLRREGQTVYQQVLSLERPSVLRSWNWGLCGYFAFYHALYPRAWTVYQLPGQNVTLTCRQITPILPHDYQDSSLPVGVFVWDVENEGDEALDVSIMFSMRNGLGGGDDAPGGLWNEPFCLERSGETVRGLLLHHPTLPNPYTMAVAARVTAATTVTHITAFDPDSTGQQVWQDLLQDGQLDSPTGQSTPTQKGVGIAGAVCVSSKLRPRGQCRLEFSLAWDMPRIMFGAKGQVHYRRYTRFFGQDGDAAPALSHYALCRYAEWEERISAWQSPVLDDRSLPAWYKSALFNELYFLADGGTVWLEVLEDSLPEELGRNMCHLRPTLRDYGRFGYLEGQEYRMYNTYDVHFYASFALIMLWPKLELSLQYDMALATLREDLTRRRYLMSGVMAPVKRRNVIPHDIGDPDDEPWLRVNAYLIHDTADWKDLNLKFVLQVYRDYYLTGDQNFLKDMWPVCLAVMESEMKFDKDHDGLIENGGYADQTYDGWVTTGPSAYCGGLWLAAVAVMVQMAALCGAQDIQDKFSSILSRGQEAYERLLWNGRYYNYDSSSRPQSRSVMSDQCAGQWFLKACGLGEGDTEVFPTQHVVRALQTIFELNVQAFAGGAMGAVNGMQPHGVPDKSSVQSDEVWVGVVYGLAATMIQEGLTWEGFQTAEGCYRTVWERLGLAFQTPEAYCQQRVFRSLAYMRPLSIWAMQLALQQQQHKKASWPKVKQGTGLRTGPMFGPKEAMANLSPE

[6] = target: T5, glucosylceramide synthase (Homo sapiens, UniProt Q16739); assay: glucosylceramide synthase activity in cultured melanoma cells; type: cell-based; conditions: at IC50 concentration for glucosylceramidase
T5 sequence (Q16739 1-394): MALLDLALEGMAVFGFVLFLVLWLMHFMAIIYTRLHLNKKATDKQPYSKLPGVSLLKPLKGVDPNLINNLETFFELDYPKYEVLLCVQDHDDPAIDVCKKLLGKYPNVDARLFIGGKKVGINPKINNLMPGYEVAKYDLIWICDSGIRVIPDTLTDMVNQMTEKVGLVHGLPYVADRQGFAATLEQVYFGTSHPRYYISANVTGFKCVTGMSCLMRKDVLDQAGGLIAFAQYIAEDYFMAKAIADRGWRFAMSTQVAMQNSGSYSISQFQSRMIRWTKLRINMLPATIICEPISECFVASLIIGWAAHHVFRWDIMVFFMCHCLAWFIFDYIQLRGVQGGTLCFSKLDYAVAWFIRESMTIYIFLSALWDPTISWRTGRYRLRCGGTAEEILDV

glycogen synthase = target: T6, glycogen synthase (Rattus norvegicus, UniProt P17625); assay: glycogen synthase in rat hepatocytes; type: cell-based; conditions: at IC50 concentration for glucosylceramidase
T6 construct: endogenous in cells; host or cells: rat hepatocytes
T6 sequence (P17625 1-704): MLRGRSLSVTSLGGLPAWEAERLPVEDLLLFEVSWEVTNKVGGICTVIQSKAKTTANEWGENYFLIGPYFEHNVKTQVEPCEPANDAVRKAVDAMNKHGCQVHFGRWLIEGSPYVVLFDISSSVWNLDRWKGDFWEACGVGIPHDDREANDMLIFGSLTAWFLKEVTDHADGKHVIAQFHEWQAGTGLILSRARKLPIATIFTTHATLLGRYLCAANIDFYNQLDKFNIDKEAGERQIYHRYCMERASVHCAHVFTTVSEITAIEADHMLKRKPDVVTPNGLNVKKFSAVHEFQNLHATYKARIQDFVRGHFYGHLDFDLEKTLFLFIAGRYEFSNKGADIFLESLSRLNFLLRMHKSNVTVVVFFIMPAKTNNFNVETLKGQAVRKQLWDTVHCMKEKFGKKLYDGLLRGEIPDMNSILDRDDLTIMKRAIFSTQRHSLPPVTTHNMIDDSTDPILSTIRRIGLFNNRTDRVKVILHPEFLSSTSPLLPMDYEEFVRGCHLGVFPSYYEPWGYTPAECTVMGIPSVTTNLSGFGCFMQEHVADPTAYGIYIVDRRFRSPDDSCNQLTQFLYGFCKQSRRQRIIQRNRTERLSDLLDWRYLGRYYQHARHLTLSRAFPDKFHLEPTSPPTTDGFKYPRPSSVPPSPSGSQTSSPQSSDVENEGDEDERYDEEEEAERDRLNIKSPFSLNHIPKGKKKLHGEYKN

glucocerebrosidase [7] = target: T2, glucocerebrosidase; assay: glucocerebrosidase activity in intact melanoma cells (4MU-b-glucoside, conduritol B-epoxide sensitive); type: cell-based; design: the hydrolysis of 4MU-b-glucoside by cultured melanoma cells; endogenous in cells
glucosylceramidase [8] = target: T4, glucosylceramidase; assay: glucosylceramidase activity towards 4MU-b-glucoside in conduritol B-epoxide pre-treated membrane suspension from human spleen

`CC(C)CCC[C@@H](C)[C@H]1CC[C@H]2[C@@H]3CC=C4C[C@@H](OCCCCCN5C[C@H](O)[C@@H](O)[C@H](O)[C@H]5CO)CC[C@]4(C)[C@H]3CC[C@]12C` [P24, N-(5-cholesteroloxy-pentyl)-deoxynojirimycin] gave a Ki (lysosomal a-glucosidase [1]) of 7.2 µM, an IC50 (glucocerebrosidase [2]) of 700 nM and a Ki (glucocerebrosidase [2]; membrane suspension, 4MU-b-glucoside, pH 5.2, read-out: apparent Ki GLUCOCEREBROSIDASE MEMBRANES) of 770 nM. The “inhibition of lysosomal a-glucosidase” value (lysosomal a-glucosidase [3]) was “no inhibition”, the IC50 [4] was 800 nM and the Ki ([4]; soluble enzyme, 0.25% sodium taurocholate, 0.1% Triton X-100, pH 5.2, read-out: apparent Ki GLUCOCEREBROSIDASE CEREDASE) was 960 nM. For the same molecule, the IC50 (glucosylceramidase [5]) was 50 nM and ~50 nM, the “inhibition of glucosylceramide synthase activity” value [6] was “no inhibition” and the “inhibition of glycogen synthase” value (glycogen synthase) was “no inhibition”. The IC50 (glucocerebrosidase [7]) was 800 nM, the “inhibition of glucocerebrosidase activity” value (glucocerebrosidase [7]; melanoma cells, at IC50 for glucosylceramidase or ten-fold higher concentrations) was “no significant inhibition” and the IC50 (glucosylceramidase [8]) was 100 nM. The Ki (glucosylceramidase [8]) was 97 nM.
